In series [1] the test system is HSV-1 TK- in MRC-5 cells. Description: Anti-HSV activity on MRC-5 cells, HSV-1 TK-. Particulars: Human alphaherpesvirus 1, MRC5, read-out: HSV-1 TK- EC50. Type of series: cell-based, Herpes simplex virus type 1 TK-. From the text: (§1) The experimental procedure used for evaluation of activities against Herpes simplex virus type 1 (HSV-1) is the as described by Genu-Dellac et al. in Nucleosides and Nucleotides, 10, 1345, (1991).
(§2) 3. Anti HSV activity on MRC-5 cells of Bis(S-acyl-2thioethyl)phosphotriesters derivatives of acyclovir is compared to that of Acyclovir in Table 3.
(§3) EC50 represents the molar concentration which produces a 50% inhibition of HSV-1 replication. Significant activity is shown.

Series [2] has as its system Cytomegalovirus. Particulars: background; thymidine kinase activity reduced or missing; cited from earlier work.
Series [3] has as its system Hepatitis B virus (HBV) replication, HBV virion, in transfected HepG2 (2.2.15) cells. Put plainly: Anti-HBV activity on transfected HepG2 (2.2.15) cells (HBV virion). It is filed as cell-based. Particulars: for EC50: 50% inhibition of HBV replication; for EC90: 90% inhibition of HBV replication; for SI: SI = CC50/EC90. An excerpt: (§4) The experimental procedure used for evaluation of activity against Hepatitis B virus is as previously described by Korba and Milman in Antiviral Res. […].
(§5) 1. Anti-HBV activity on transfected HepG2 (2.2.15) cells of Bis(S-acyl-2-thioethyl)phosphotriester derivatives of Acyclovir, (compound 9 of Figure I), as compared with those of the parent nucleoside and of 2',3'-dideoxyguanosine (ddG) and 2',3'-dideoxycytidine (ddC) are shown in Table 1.
(§6) In Table 1, EC90 and EC50 represent the molar concentrations which provide respectively a 90% and a 50% inhibition of HBV replication. CC50 represents the molar concentration which reduces the viability of non-infected cells by 50%.

Series [4] in a line: Viability of non-infected cells (CC50, Table 1). Type of series: cell-based. As to conditions: human, hepg2 2.2.15 cells, reduces viability of non-infected cells by 50%.
Excerpt: as §4, §5, §6

For series [5], the system named is Herpes simplex virus type 1 (HSV-1) in MRC-5 cells. Description: Anti-HSV activity on MRC-5 cells, HSV-1. Type of series: cell-based. As to conditions: Human alphaherpesvirus 1, MRC5, 50% inhibition of HSV-1 replication.
Excerpt: as §1, §2, §3

For series [6], the system named is Human Immunodeficiency virus (HIV-1, LAI isolate) replication in CEM TK- cells. Description: Anti-HIV activity on CEM TK- cells. Type of series: cell-based. Particulars: Human immunodeficiency virus 1, CEM-TK(-), read-out: EC50 (anti-HIV). As to the method: The experimental procedure used for evaluation of activities against Human Immunodeficiency virus (HIV) is as follows:
HIV-1 replication (LAI isolate) in CEM cells are measured by assaying for […] (RTase) in the culture supernatant after infection for five days. This activity reflects the presence of the virus released by the cells. After absorption of the virus, the test compounds are added at various concentrations in the culture medium. Antiviral activity is expressed as the lowest concentration of compound which reduces the vital production by at least 50% (ED50)
(§7) 2. Anti-HIV activity on CEM TK- cells of Bis(S-acyl-2-thioethyl) phosphotriesters derivatives of acyclovir, as compared with those of the parent nucleoside and of AZT are shown in Table 2.
In Table 2, EC50 represents the molar concentration which produces a 50% inhibition of HIV replication. Significant inhibition is shown.

The test system of series [7] is Human Immunodeficiency virus (HIV). As to conditions: background; cited from earlier work.
Series [8] is described as follows: in vitro. It is filed as cell-based. As to conditions: human, cem cells. As to the method: The toxic effect on non-infected CEMs is assessed by a […] reaction based on the capacity of living cells to reduce 3-(4,5 dimethylthiazol-2-yl)-2,5 diphenyltetrazolium bromide into formazan after incubation for five days in the presence of various concentrations of the compounds. The results are expressed as the lowest concentration of compound which results in at least 50% inhibition of the formation of formazan (CD50).
as §7

Series [9] concerns Herpes Simplex virus (HSV). As to conditions: background; due to selective monophosphorylation by HSV thymidine kinase; cited from earlier work.
Series [10] relates to Epstein-Barr virus. Particulars: background; thymidine kinase activity reduced or missing; cited from earlier work.
Series [11] relates to Hepatitis B virus (HBV). As to conditions: background; cited from earlier work.
Series [12] relates to HepG2 (2.2.15) cells. Description: Viability of non-infected cells (CC50, Table 1). As to conditions: reduces viability of non-infected cells by 50%. It is filed as cell-based.
Excerpt: as §4, §5, §6

The mark [13] stands for this setting: Hepatitis B virus, HepG2 2.2.15, read-out: HBV virion EC50, transfected HepG2 (2.2.15) cells.
Setting [14] is: Hepatitis B virus, HepG2 2.2.15, transfected HepG2 (2.2.15) cells.
Setting [15] is: Hepatitis B virus, HepG2 2.2.15, transfected HepG2 (2.2.15) cells, read-out: HBV virion EC50.

Several values for one entry are separate records, joined by “and”; a condition that tells them apart may be missing. Equal values may be shown once. Read-outs that look alike come from different tables or passages of the source. Some results are limits rather than exact numbers.

As a reminder, the EC50 is the concentration at which the effect is half-maximal. By EC90 is commonly meant the point of the concentration-response curve where the effect stands at 90%. Low values mean greater potency, high ones weaker potency. For orientation: CC50 means the concentration that lowers cell viability or growth by half. Low values mean harm at low concentration, high ones better tolerance by the cells. In the case of `Nc1nc2c(ncn2COCCO)c(=O)[nH]1` [Acyclovir, acyclovir], the EC50 is greater than 100 µM in series [1], 111 ± 15 µM in series [3] (setting [13]), 0.63 µM in series [5] and greater than 100 µM in series [6]. The “activity against Cytomegalovirus (in words)” value in [2] is recorded as “poorly active”. In addition, in [3] (setting [14]), the EC90 is greater than 100 µM. Further, the CC50 in series [4] amounted to 631 ± 40 µM. Moreover, the “activity against HIV (in words)” value in series [7] was “no activity”. The same compound came in with a CC50 at 120 h in series [8] greater than 100 µM. Moreover, the cytotoxicity at 120 h, 100 µM in series [8] came to 0%. Moreover, the “anti-herpetic activity (in words)” value in series [9] is “anti-herpetic activity”. Besides, the “activity against Epstein-Barr virus (in words)” value in [10] is “poorly active”. In addition, in series [11], the “activity against HBV (in words)” value is given as “no activity”.

For the compound `Nc1ccn([C@H]2CC[C@@H](CO)O2)c(=O)n1` [ddC, 2',3'-dideoxycytidine], the 50% effective concentration (EC50) was 1.3 ± 0.2 µM in series [3] (setting [13]) and 2.2 ± 0.3 µM in series [3] (transfected HepG2 (2.2.15) cells, read-out: HBV virion EC50). For the same compound, the SI in [3] is 20 and 30. Besides, the results for the CC50 in series [4] and in series [12] were 219 ± 19 µM and 218 ± 19 µM, respectively.

With `CC(C)(C)C(=O)SCCOP(=O)(OCCOCn1cnc2c(=O)[nH]c(N)nc21)OCCSC(=O)C(C)(C)C` [Bis(SPTE)ACVMP, O-[1-(Methyl-[9-guanin-yl]) -1-hydroxyethyl-2-yl]-O',O"-bis(S-pivaloyl-2-thioethyl) phosphate], the EC50 in series [1] stood at 10 µM; in [3] (setting [15]) it was 0.2 ± 0.04 µM; in series [5], 2.5 µM; in series [6] it was 3.6 µM. Besides, the EC90 in series [3] (setting [14]) worked out at 7.1 ± 0.8 µM. The SI in series [3] is 224. In series [4], this compound gave a CC50 of 1590 ± 131 µM. In addition, the CC50 at 120 h in [8] is greater than 10 µM. The compound also gave a cytotoxicity at 120 h, 10 µM in series [8] of 26%.

As to `Cc1cn([C@H]2C[C@H](N=[N+]=[N-])[C@@H](CO)O2)c(=O)[nH]c1=O` [AZT], in series [6], the EC50 was greater than 100 µM. In [8], this compound returned a CC50 at 120 h greater than 100 µM and a cytotoxicity at 120 h, 100 µM of 5%.

On to `CC(=O)SCCOP(=O)(OCCOCn1cnc2c(=O)[nH]c(N)nc21)OCCSC(C)=O` [Bis(SATE)ACVMP, O-[1-(Methyl-[9-guanin-yl])-1-hydroxyethyl-2-yl]-O',O"-bis(S-acetyl-2-thioethyl) phosphate], for which the EC50 in [1] is 100 µM; in series [3] (setting [15]), 0.7 ± 0.1 µM; in [5], 1.25 µM; in [6], 77 µM. Further, in series [3] (setting [14]), the 90% effect level (EC90) was put at 5.1 ± 1 µM. The same compound showed an SI in series [3] of 194. It took 987 ± 99 µM to reach half-maximal cytotoxicity in [4] (CC50). The same compound yielded a CC50 at 120 h in series [8] greater than 100 µM. In addition, the cytotoxicity at 120 h, 100 µM in series [8] was determined as 0%.

Source of the values: patent publication US5627185A, “Acyclovir derivatives as antiviral agents” (priority 1995, dated 1997).
